Results: US20240335541A1, “NANOMATERIALS COMPRISING DIAMINES” (Beam Therapeutics Inc., priority 2021, published 2024)

How the values were obtained:
[1] = LNP hydrodynamic diameter and PDI by DLS (Example 16 LNPs, Stunner); type: physicochemical; conditions: Example 16 LNPs: 47.5% Ionizable Lipid: 40% cholesterol: 2.5% PEG-2000 DMG: 10% DPSC, N/P 4-8
Procedure: (§1) LNPs were prepared with 47.5% Ionizable Lipid (e.g., a compound provided herein): 40% cholesterol: 2.5% PEG-2000 DMG: 10% DPSC and an N/P ratio range of 4-8. LNPs were formed by microfluidic mixing of the lipid and NA solutions using a Precision Nanosystems NanoAssemblr Spark or Benchtop series Instruments, according to the manufacturer's protocol. A ratio of aqueous to organic solvent of approximately 2:1 or 3:1 was maintained during mixing using differential flow rates. After mixing, LNPs were collected, diluted in phosphate buffer saline (PBS) or Tris-buffered saline (TBS) (approximately 1:1 v/v). Further buffer exchange was conducted using dialysis in PBS or TBS at 4° C. for 4 to 24 hours against a 20 kDa filter. After this initial dialysis, each individual LNP preparation was characterized via dynamic light scattering (DLS) to measure the size (e.g., diameter) and polydispersity. LNPs falling within specific diameter and polydispersity ranges were pooled, and further dialyzed against PBS or TBS at 4° C. for 1 to 4 hours against a 100 kDa dialysis cassette. After the second dialysis, LNPs were sterile filtered using 0.22 μm filter and stored at 4° C. for further use.
LNP hydrodynamic diameter and polydispersity index (PDI) were measured using high throughput dynamic light scattering (DLS) (Stunner, Unchained Labs). LNPs were diluted 1×TBS or PBS to an appropriate concentration and analyzed.

[2] = LNP encapsulation efficiency by Ribogreen assay (Example 16 LNPs); type: physicochemical; conditions: Example 16 LNPs: 47.5% Ionizable Lipid: 40% cholesterol: 2.5% PEG-2000 DMG: 10% DPSC, N/P 4-8
Procedure: as §1
RNA concentration and encapsulation efficiency were determined by Ribogreen assay (BioTek Synergy LX plate reader).

Compound	Mean Diameter [1] [nm]	Mean PDI [1]	Mean Encapsulation Efficiency [2] [%]
CC/C=C\CCCCOC(CCC(=O)OCCCCCCN(CCO)CCCN(CCCCCCOC(=O)CCC(OCCCC/C=C\CC)OCCCC/C=C\CC)CCCCCCOC(=O)CCC(OCCCC/C=C\CC)OCCCC/C=C\CC)OCCCC/C=C\CC [Example 7-1]	90.2	0.12	80.8
CC/C=C\CCCCOC(CCC(=O)OCCCCCCN(CCCCCCOC(=O)CCC(OCCCC/C=C\CC)OCCCC/C=C\CC)CCCN(CCO)CCCCCCCC(=O)OCCCCCCCCC)OCCCC/C=C\CC [Example 7-3, ((3-((2-hydroxyethyl)(8-(nonyloxy)-8-oxooctyl)amino)propyl)azanediyl)bis(hexane-6,1-diyl) bis(4,4-bis(((Z)-oct-5-en-1-yl)oxy)butanoate)]	69.1	0.13	85.1
CC/C=C\CCCCOC(CCC(=O)OCCCCCCN(CCO)CCCN(CCCCCC(=O)OCCCCCCCCC)CCCCCC(=O)OCCCCCCCCC)OCCCC/C=C\CC [Example 7-5, dinonyl 6,6′-((3-((6-((4,4-bis(((Z)-oct-5-en-1-yl)oxy)butanoyl)oxy)hexyl)(2-hydroxyethyl)amino)propyl)azanediyl)dihexanoate]	81.3	0.12	49.0
CC/C=C\CCCCOC(CCC(=O)OCCCCCCN(CCO)CCCN(CCCCCCCC(=O)OCCCCCCCCC)CCCCCCCC(=O)OCCCCCCCCC)OCCCC/C=C\CC [Example 7-6]	85.7	0.10	46.0
CC/C=C\CCCCOC(CCC(=O)OCCCCCCN(CCO)CCCN(CCCCCCOC(=O)C(CCCC)CCCCCC)CCCCCCOC(=O)C(CCCC)CCCCCC)OCCCC/C=C\CC (stereo not drawn) [Example 7-7]	83.4	0.08	57.4
CC/C=C\CCCCOC(CCC(=O)OCCCCCCCN(CCO)CCCN(CCCCCCOC(=O)C(CCCC)CCCCCC)CCCCCCOC(=O)C(CCCC)CCCCCC)OCCCC/C=C\CC (stereo not drawn) [Example 7-9]	89.2	0.11	69.4
CC/C=C\CCCCOC(CCC(=O)OCCCCCCN(CCCO)CCN(CCCCCCOC(=O)CCC(OCCCC/C=C\CC)OCCCC/C=C\CC)CCCCCCOC(=O)CCC(OCCCC/C=C\CC)OCCCC/C=C\CC)OCCCC/C=C\CC [Example 7-16]	91.3	0.11	81.8
CC/C=C\CCCCOC(CCC(=O)OCCCCCCN(CCCO)CCN(CCCCCCOC(=O)C(CCCC)CCCCCC)CCCCCCOC(=O)C(CCCC)CCCCCC)OCCCC/C=C\CC (stereo not drawn) [Example 7-20]	97.0	0.17	71.4
CC/C=C\CCCCOC(CCC(=O)OCCCCCCN(CCCO)CCN(CCCCCCCCCOC(=O)C(CCCC)CCCCCC)CCCCCCCCCOC(=O)C(CCCC)CCCCCC)OCCCC/C=C\CC (stereo not drawn) [Example 7-21]	87.1	0.12	60.9
CC/C=C\CCCCOC(CCC(=O)OCCCCCCCN(CCCCCCCOC(=O)CCC(OCCCC/C=C\CC)OCCCC/C=C\CC)CCCN(CCO)CCCCCCCCCOC(=O)C(CCCC)CCCCCC)OCCCC/C=C\CC (stereo not drawn) [Example 7-24, ((3-((9-((2-butyloctanoyl)oxy)nonyl)(2-hydroxyethyl)amino)propyl)azanediyl)bis(heptane-7,1-diyl) bis(4,4-bis(((Z)-oct-5-en-1-yl)oxy)butanoate)]	92.7	0.12	72.4
CC/C=C\CCCCOC(CCC(=O)OCCCCCCCN(CCO)CCCN(CCCCCCCCCOC(=O)C(CCCC)CCCCCC)CCCCCCCCCOC(=O)C(CCCC)CCCCCC)OCCCC/C=C\CC (stereo not drawn) [Example 7-25]	92.4	0.13	62.8
CC/C=C\CCCCOC(CCC(=O)OCCCCCCCN(CCCCCCCOC(=O)CCC(OCCCC/C=C\CC)OCCCC/C=C\CC)CCN(CCO)CCCCCCCCCOC(=O)C(CCCC)CCCCCC)OCCCC/C=C\CC (stereo not drawn) [Example 7-26, ((2-((9-((2-butyloctanoyl)oxy)nonyl)(2-hydroxyethyl)amino)ethyl)azanediyl)bis(heptane-7,1-diyl) bis(4,4-bis(((Z)-oct-5-en-1-yl)oxy)butanoate)]	82.5	0.12	69.2
CC/C=C\CCCCOC(CCC(=O)OCCCCCCCN(CCCO)CCN(CCCCCCCCCOC(=O)C(CCCC)CCCCCC)CCCCCCCCCOC(=O)C(CCCC)CCCCCC)OCCCC/C=C\CC (stereo not drawn) [Example 7-27]	81.7	0.11	63.3
CC/C=C\CCCCOC(CCC(=O)OCCCCCCCN(CCCCCCCOC(=O)CCC(OCCCC/C=C\CC)OCCCC/C=C\CC)CCCN(CCCO)CCCCCCCC(=O)OCCCCCCCCC)OCCCC/C=C\CC [Example 7-28, ((3-((3-hydroxypropyl)(8-(nonyloxy)-8-oxooctyl)amino)propyl)azanediyl)bis(heptane-7,1-diyl) bis(4,4-bis(((Z)-oct-5-en-1-yl)oxy)butanoate)]	98.8	0.11	49.6
CC/C=C\CCCCOC(CCC(=O)OCCCCCCCN(CCCO)CCCN(CCCCCCCOC(=O)CCC(OCCCC/C=C\CC)OCCCC/C=C\CC)CCCCCCCOC(=O)CCC(OCCCC/C=C\CC)OCCCC/C=C\CC)OCCCC/C=C\CC [Example 7-29]	95.4	0.13	83.2
